# Test results reported in ChEMBL document CHEMBL1152723, “Remarkable enhancement in the DNA-binding ability of C2-fluoro substituted pyrrolo[2,1-c][1,4]benzodiazepines and their anticancer potential” (2009).
# Tests used:
# [1] = system: HL-60(TB); assay: Growth inhibition of human HL-60(TB) cells after 48 hrs by sulforhodamine B protein assay; assay type: functional; conditions: HL-60, 48 h
# [2] = system: IGROV-1; assay: Growth inhibition of human IGROV1 cells after 48 hrs by sulforhodamine B protein assay; assay type: functional; conditions: IGROV-1, 48 h
# [3] = system: COLO 205; assay: Growth inhibition of human COLO205 cells after 48 hrs by sulforhodamine B protein assay; assay type: functional; conditions: COLO 205, 48 h
# [4] = system: CCRF-CEM; assay: Growth inhibition of human CCRF-CEM cells after 48 hrs by sulforhodamine B protein assay; assay type: functional
# [5] = system: NCI-H522; assay: Growth inhibition of human NCI-H522 cells after 48 hrs by sulforhodamine B protein assay; assay type: functional; conditions: NCI-H522, 48 h
# [6] = system: MOLT-4; assay: Growth inhibition of human MOLT4 cells after 48 hrs by sulforhodamine B protein assay; assay type: functional; conditions: MOLT-4, 48 h
# [7] = system: A549; assay: Growth inhibition of human A549 cells after 48 hrs by sulforhodamine B protein assay; assay type: functional; conditions: A549, 48 h
# [8] = system: NCI-H23; assay: Growth inhibition of human NCI-H23 cells after 48 hrs by sulforhodamine B protein assay; assay type: functional; conditions: NCI-H23, 48 h
# [9] = Growth inhibition of human Hs 578T cells after 48 hrs by sulforhodamine B protein assay; assay type: functional
# [10] = system: SK-MEL-28; assay: Growth inhibition of human SK-MEL-28 cells after 48 hrs by sulforhodamine B protein assay; assay type: functional; conditions: SK-MEL-28, 48 h
# [11] = system: CAKI-1; assay: Growth inhibition of human Caki1 cells after 48 hrs by sulforhodamine B protein assay; assay type: functional; conditions: CAKI-1, 48 h
# [12] = system: SR; assay: Growth inhibition of human SR cells after 48 hrs by sulforhodamine B protein assay; assay type: functional
# [13] = system: RXF 393; assay: Growth inhibition of human […] cells after 48 hrs by sulforhodamine B protein assay; assay type: functional; conditions: RXF 393, 48 h
# [14] = system: OVCAR-8; assay: Growth inhibition of human OVCAR8 cells after 48 hrs by sulforhodamine B protein assay; assay type: functional; conditions: OVCAR-8, 48 h
# [15] = system: A498; assay: Growth inhibition of human A498 cells after 48 hrs by sulforhodamine B protein assay; assay type: functional; conditions: A498, 48 h
# [16] = system: SNB-19; assay: Growth inhibition of human SNB19 cells after 48 hrs by sulforhodamine B protein assay; assay type: functional; conditions: SNB-19, 48 h
# [17] = system: NCI-H460; assay: Growth inhibition of human NCI-H460 cells after 48 hrs by sulforhodamine B protein assay; assay type: functional; conditions: NCI-H460, 48 h
# [18] = system: SK-MEL-5; assay: Growth inhibition of human SK-MEL-5 cells after 48 hrs by sulforhodamine B protein assay; assay type: functional; conditions: SK-MEL-5, 48 h
# [19] = system: TK-10; assay: Growth inhibition of human TK10 cells after 48 hrs by sulforhodamine B protein assay; assay type: functional; conditions: TK-10, 48 h
# [20] = system: LOX IMVI; assay: Growth inhibition of human LOXIMVI cells after 48 hrs by sulforhodamine B protein assay; assay type: functional
# [21] = system: BT-549; assay: Growth inhibition of human BT549 cells after 48 hrs by sulforhodamine B protein assay; assay type: functional; conditions: BT-549, 48 h
# [22] = system: UACC-62; assay: Growth inhibition of human UACC62 cells after 48 hrs by sulforhodamine B protein assay; assay type: functional; conditions: UACC-62, 48 h
# [23] = system: OVCAR-3; assay: Growth inhibition of human OVCAR-3 cells after 48 hrs by sulforhodamine B protein assay; assay type: functional; conditions: OVCAR-3, 48 h
# [24] = system: MDA-MB-435; assay: Growth inhibition of human MDA-MB-435 cells after 48 hrs by sulforhodamine B protein assay; assay type: functional; conditions: MDA-MB-435, 48 h
# [25] = system: HCT-116; assay: Growth inhibition of human HCT116 cells after 48 hrs by sulforhodamine B protein assay; assay type: functional; conditions: HCT-116, 48 h
# [26] = system: HOP-62; assay: Growth inhibition of human HOP62 cells after 48 hrs by sulforhodamine B protein assay; assay type: functional; conditions: HOP-62, 48 h
# [27] = system: HT-29; assay: Growth inhibition of human HT-29 cells after 48 hrs by sulforhodamine B protein assay; assay type: functional; conditions: HT-29, 48 h
# [28] = system: SW-620; assay: Growth inhibition of human SW620 cells after 48 hrs by sulforhodamine B protein assay; assay type: functional; conditions: SW-620, 48 h
# [29] = system: SN12C; assay: Growth inhibition of human SN12C cells after 48 hrs by sulforhodamine B protein assay; assay type: functional
# [30] = system: ACHN; assay: Growth inhibition of human ACHN cells after 48 hrs by sulforhodamine B protein assay; assay type: functional
# [31] = system: 786-0; assay: Growth inhibition of human 786-0 cells after 48 hrs by sulforhodamine B protein assay; assay type: functional; conditions: 786-0, 48 h
# [32] = system: DNA; assay: Binding affinity to calf thymus DNA assessed as change in melting temperature at a compound to DNA molar ratio of 1:5 at pH 7 by thermal denaturation assay; assay type: nucleic-acid assay; conditions: Bos taurus
# [33] = system: KM12; assay: Growth inhibition of human KM12 cells after 48 hrs by sulforhodamine B protein assay; assay type: functional; conditions: KM12, 48 h
# [34] = system: Malme-3M; assay: Growth inhibition of human MALME-3M cells after 48 hrs by sulforhodamine B protein assay; assay type: functional
# [35] = system: T47D; assay: Growth inhibition of human T47D cells after 48 hrs by sulforhodamine B protein assay; assay type: functional
# [36] = system: HOP-92; assay: Growth inhibition of human HOP92 cells after 48 hrs by sulforhodamine B protein assay; assay type: functional; conditions: HOP-92, 48 h
# [37] = system: SNB-75; assay: Growth inhibition of human SNB75 cells after 48 hrs by sulforhodamine B protein assay; assay type: functional; conditions: SNB-75, 48 h
# [38] = system: MDA-MB-231; assay: Growth inhibition of human MDA-MB-231 cells after 48 hrs by sulforhodamine B protein assay; assay type: functional; conditions: MDA-MB-231, 48 h
# [39] = system: PC-3; assay: Growth inhibition of human PC3 cells after 48 hrs by sulforhodamine B protein assay; assay type: functional; conditions: PC-3, 48 h
# [40] = system: HCC 2998; assay: Growth inhibition of human HCC2998 cells after 48 hrs by sulforhodamine B protein assay; assay type: functional; conditions: HCC 2998, 48 h
# [41] = system: MDA-MB-468; assay: Growth inhibition of human MDA-MB-468 cells after 48 hrs by sulforhodamine B protein assay; assay type: functional; conditions: MDA-MB-468, 48 h
# [42] = system: M14; assay: Growth inhibition of human M14 cells after 48 hrs by sulforhodamine B protein assay; assay type: functional; conditions: M14, 48 h
# [43] = system: DU-145; assay: Growth inhibition of human DU145 cells after 48 hrs by sulforhodamine B protein assay; assay type: functional; conditions: DU-145, 48 h
# [44] = system: SF-268; assay: Growth inhibition of human SF268 cells after 48 hrs by sulforhodamine B protein assay; assay type: functional; conditions: SF-268, 48 h
# [45] = target: T1, Type II restriction enzyme BamHI (Bacillus amyloliquefaciens) (UniProt P23940); assay: Inhibition of Bacillus amyloliquefaciens BamH1-mediated pBR322 cleavage after 16 hrs by RED100-restriction endonuclease digestion assay
# T1 sequence (whole entry): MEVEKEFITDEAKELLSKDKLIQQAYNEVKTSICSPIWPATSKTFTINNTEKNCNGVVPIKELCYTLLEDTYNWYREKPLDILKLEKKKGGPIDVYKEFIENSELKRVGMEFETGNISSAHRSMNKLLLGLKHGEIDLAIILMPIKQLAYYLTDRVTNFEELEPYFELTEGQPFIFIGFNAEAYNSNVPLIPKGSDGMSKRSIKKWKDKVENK
# [46] = system: K562; assay: Growth inhibition of human K562 cells after 48 hrs by sulforhodamine B protein assay; assay type: functional; conditions: K562, 48 h
# [47] = system: MCF7; assay: Growth inhibition of human MCF7 cells after 48 hrs by sulforhodamine B protein assay; assay type: functional; conditions: MCF7, 48 h
# [48] = system: SF-539; assay: Growth inhibition of human SF539 cells after 48 hrs by sulforhodamine B protein assay; assay type: functional; conditions: SF-539, 48 h
# [49] = system: OVCAR-5; assay: Growth inhibition of human OVCAR5 cells after 48 hrs by sulforhodamine B protein assay; assay type: functional; conditions: OVCAR-5, 48 h
# [50] = Growth inhibition of human […] cells after 48 hrs by sulforhodamine B protein assay; assay type: functional
# [51] = system: U-251; assay: Growth inhibition of human U251 cells after 48 hrs by sulforhodamine B protein assay; assay type: functional; conditions: U-251, 48 h
# [52] = system: SK-OV-3; assay: Growth inhibition of human SKOV3 cells after 48 hrs by sulforhodamine B protein assay; assay type: functional; conditions: SK-OV-3, 48 h
smiles,measurement,setting,value
COc1cc2c(cc1OCCCN1CCN(CCCOc3cc4c(cc3OC)C(=O)N3CC(F)(F)C[C@H]3C=N4)CC1)N=C[C@@H]1CC(F)(F)CN1C2=O,GI50,[1],1.18 µM
same,GI50,[2],1.92 µM
same,GI50,[3],3.09 µM
same,GI50,[4],0.97 µM
same,GI50,[5],1.14 µM
same,GI50,[6],2.02 µM
same,GI50,[7],7.32 µM
same,GI50,[8],4.66 µM
same,GI50,[9],2.32 µM
same,GI50,[10],1.86 µM
same,GI50,[11],3.31 µM
same,GI50,[12],0.88 µM
same,GI50,[13],2.14 µM
same,GI50,[14],6.3 µM
same,GI50,[15],2.43 µM
same,GI50,[16],4.08 µM
same,GI50,[17],2.6 µM
same,GI50,[18],4.28 µM
same,GI50,[19],4.38 µM
same,GI50,[20],1.89 µM
same,GI50,[21],1.95 µM
same,GI50,[22],3.05 µM
same,GI50,[23],3.55 µM
same,GI50,[24],2.94 µM
same,GI50,[25],3.59 µM
same,GI50,[26],3.17 µM
same,GI50,[27],3.61 µM
same,GI50,[28],2.61 µM
same,GI50,[29],4.05 µM
same,GI50,[30],5.64 µM
same,GI50,[31],3.17 µM
same,ΔTm,[32],11 °C
same,GI50,[33],4.1 µM
same,GI50,[34],2.8 µM
same,GI50,[35],3.25 µM
same,GI50,[36],6.14 µM
same,GI50,[37],5.52 µM
same,GI50,[38],4.29 µM
same,GI50,[39],3.06 µM
same,GI50,[40],5.4 µM
same,GI50,[41],1.38 µM
same,GI50,[42],3.25 µM
same,GI50,[43],3.63 µM
same,GI50,[44],3.57 µM
same,Activity,[45],Dose-dependent effect
same,GI50,[46],1.74 µM
same,GI50,[47],2.02 µM
same,GI50,[48],3.05 µM
same,GI50,[49],3.83 µM
same,GI50,[50],2.2 µM
same,GI50,[51],3.36 µM
same,GI50,[52],8.64 µM
